Assay results published in ChEMBL document CHEMBL1201862, “PubChem BioAssay data set” (2004).
Active and inactive are the calls of the source.

Experiments:
Coagulation factor XII = molecular target: T1, Coagulation factor XII (Homo sapiens, UniProt P00748); assay: FXIIa inhibitor potency, concentration-response, biochemical (AID 716); format: functional
T1 sequence (P00748 whole entry): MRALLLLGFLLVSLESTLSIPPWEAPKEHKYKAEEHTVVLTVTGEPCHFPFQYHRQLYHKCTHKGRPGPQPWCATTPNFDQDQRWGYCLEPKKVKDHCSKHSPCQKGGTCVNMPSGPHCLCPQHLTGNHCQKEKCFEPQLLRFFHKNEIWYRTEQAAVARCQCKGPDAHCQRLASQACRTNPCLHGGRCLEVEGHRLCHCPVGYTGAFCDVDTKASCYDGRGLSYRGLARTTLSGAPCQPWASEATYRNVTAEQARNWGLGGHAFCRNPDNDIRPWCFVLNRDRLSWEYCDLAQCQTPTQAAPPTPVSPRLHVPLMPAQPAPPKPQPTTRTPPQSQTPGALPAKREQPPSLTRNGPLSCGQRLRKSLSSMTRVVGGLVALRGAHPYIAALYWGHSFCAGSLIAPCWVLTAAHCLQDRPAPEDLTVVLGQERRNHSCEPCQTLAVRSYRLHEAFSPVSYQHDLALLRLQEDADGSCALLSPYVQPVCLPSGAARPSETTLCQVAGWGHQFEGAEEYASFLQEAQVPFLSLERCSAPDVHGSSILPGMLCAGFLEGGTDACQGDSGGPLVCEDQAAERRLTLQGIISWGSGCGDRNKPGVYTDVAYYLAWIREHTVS

[1] = molecular target: Alkaline phosphatase, placental type (Homo sapiens, UniProt P05187); assay: PLAP enzyme inhibitors, confirmation, biochemical, luminescence (AID 1512); format: functional
[2] = molecular target: Glyceraldehyde-3-phosphate dehydrogenase (Homo sapiens, UniProt P04406)
[3] = molecular target: T2, Alkaline phosphatase, tissue-nonspecific isozyme (Homo sapiens, UniProt P05186); assay: human TNAP enzyme inhibitors, SAR follow-up, biochemical, luminescent, dose response (AID 1056)
T2 sequence (P05186 whole entry): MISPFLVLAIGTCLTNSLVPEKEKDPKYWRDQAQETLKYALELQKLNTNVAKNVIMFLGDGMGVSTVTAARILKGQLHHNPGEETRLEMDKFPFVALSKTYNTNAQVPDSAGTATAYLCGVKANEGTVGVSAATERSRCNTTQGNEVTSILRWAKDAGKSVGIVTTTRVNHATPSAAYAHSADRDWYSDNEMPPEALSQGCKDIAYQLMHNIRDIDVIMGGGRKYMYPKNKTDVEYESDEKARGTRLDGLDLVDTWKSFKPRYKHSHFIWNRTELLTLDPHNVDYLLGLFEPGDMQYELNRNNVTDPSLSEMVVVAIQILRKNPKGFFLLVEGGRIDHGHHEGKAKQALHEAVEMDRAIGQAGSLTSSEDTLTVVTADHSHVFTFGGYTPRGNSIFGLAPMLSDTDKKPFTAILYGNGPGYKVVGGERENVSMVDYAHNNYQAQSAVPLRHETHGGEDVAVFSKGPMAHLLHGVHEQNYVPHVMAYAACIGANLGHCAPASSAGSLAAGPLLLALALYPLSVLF

[4] = molecular target: Sphingosine 1-phosphate receptor 1 (Homo sapiens, UniProt P21453); format: functional;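 also: Tango beta-arrestin reporter U2OS cells stimulated with S1P near its EC80; inhibitor potency meaning antagonism of receptor activation by the natural agonist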
[5] = growth suppression of PTEN-null colon cells, dose response, cell-based, HCT116 PTEN knockout (AID 1047); format: functional;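 also: HCT116 colon tumor cells with PTEN knocked out; cells exposed to compound for 60 hours before readout; potency for loss of cell viability measured by luminescence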
[6] = MC4R antagonists, dose response, counter-screen for LGR2 antagonist project, cell-based, plate reader, cherry pick (AID 743444); format: functional;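 also: transfected HEK 293 cells stimulated with alpha-MSH peptide; potency of inhibitors of the alpha-MSH evoked signal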
[7] = Fluorescence-based cell-based high throughput dose response assay for inhibitors of the interaction of nucleotide-binding oligomerization domain containing 2 (NOD2) and the receptor-interacting serine-threonine kinase 2 (RIPK2).; format: functional; settings: Homo sapiens
[8] = A549 cell cytotoxicity, dose response, cytotoxicity control, plate reader, cherry-pick, antagonist series (AID 743412); format: functional, cell-based
INS1 = assay: beta cell apoptosis inhibitors, cytokine rescue, dose response, luminescence, retest (AID 449756); format: functional, cell-based; settings: Rattus norvegicus;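 also: cell death triggered by IL-1 beta plus TNF-alpha plus IFN-gamma mixture; protective hits raise ATP signal compared with cytokine alone wells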
[9] = HEK293 cell cytotoxicity, dose response, cytotoxicity control, plate reader, cherry-picked samples (AID 743446); format: functional, cell-based
[10] = molecular target: T3, Sphingosine 1-phosphate receptor 4 (Homo sapiens, UniProt O95977); assay: Fluorescence dose response cell-based high throughput screening assay for antagonists of the Sphingosine 1-Phosphate Receptor 4 (S1P4). [Related pubchem assays: 1524 (Confirmation in triplicates.), 1510 (Primary screen.)]; format: functional
T3 sequence (O95977 whole entry): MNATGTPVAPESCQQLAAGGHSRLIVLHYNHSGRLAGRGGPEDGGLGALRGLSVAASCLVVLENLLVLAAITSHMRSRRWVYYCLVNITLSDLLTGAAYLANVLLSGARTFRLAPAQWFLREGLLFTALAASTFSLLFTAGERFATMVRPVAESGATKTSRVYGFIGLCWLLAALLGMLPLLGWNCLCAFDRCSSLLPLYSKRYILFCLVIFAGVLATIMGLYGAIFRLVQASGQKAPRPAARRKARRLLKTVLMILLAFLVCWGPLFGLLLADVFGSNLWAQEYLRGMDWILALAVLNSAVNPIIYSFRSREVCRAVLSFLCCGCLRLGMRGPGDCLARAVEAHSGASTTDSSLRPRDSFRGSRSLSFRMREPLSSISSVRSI

[11] = LGR2 antagonists, dose response, cell-based, HEK293, CRE-luciferase reporter, cherry pick, set 2 (AID 743343); format: functional;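 also: transfected cells were stimulated with diluted bursicon conditioned medium after compound addition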
[12] = HepG2 cell cytotoxicity, dose response, cytotoxicity control, plate reader, cherry-pick, antagonist series (AID 743416); format: functional, cell-based
[13] = inhibitors of PGC1a acetylation in cells, dose response, cell-based, cherry-picked samples (AID 720514); format: functional;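 also: potency may reflect raised or lowered acetylation signal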
Beta Lactamase = Beta Lactamase (Pseudomonas aeruginosa, UniProt Q932Y6); assay: beta-lactamase reporter inhibitor potency, dose response, artefact control for NOD2-RIPK2 interaction inhibitor project, BLA reporter cells, FRET fluorescence (AID 651552); format: functional, cell-based
[14] = molecular target: Photoreceptor-specific nuclear receptor (Homo sapiens, UniProt Q9Y5X4); format: functional, cell-based;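 also: CHO-S cells with Gal4-NCOR and VP16-NR2E3 two-hybrid luciferase reporter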
Paired box protein Pax-8 = Paired box protein Pax-8 (Homo sapiens, UniProt Q06710); assay: inhibitors of PAX8-driven TPO luciferase reporter, dose response, RMG-I cells, cherry-pick (AID 687027); format: functional, cell-based;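 also: luciferase reporter driven by Pax8 target thyroperoxidase promoter measured by SteadyGlo luminescence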
[15] = growth suppression of beta-catenin-knockout colon cells, dose response, cell-based, HCT116, human colon tumor (AID 1045); format: functional;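 also: HCT116 colon tumor cells with beta catenin knocked out; cells exposed to compound for 60 hours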
[16] = molecular target: G-protein coupled receptor 55 (Homo sapiens, UniProt Q9Y2T6); assay: GPR55 agonists via beta-arrestin recruitment, primary screen, imaging, U2OS cells, beta-arrestin-GFP redistribution (AID 1961); format: functional
H4 = assay: Luminescence Cell-Based Dose Response HTS to Identify Activators of 5'UTR Stem-Loop Driven Prion Protein mRNA Translation in H4 Neuroglioblastoma Cells. [Related pubchem assays: 1829 (Project Summary), 1814 (Primary HTS)]; format: functional; settings: Homo sapiens
[17] = Luminescence Cell-Based Dose Confirmation HTS to Identify Activators of 5'UTR Stem-Loop Driven Alpha-Synuclein mRNA Translation in H4 Neuroglioblastoma Cells. [Related pubchem assays: 1829 (Project Summary), 1814 (Primary HTS)]; format: functional
[18] = Luminescence Cell-Based Dose Response HTS to Identify Activators of Luciferase Translation or Activity in H4 […] Cells. [Related pubchem assays: 1829 (Project Summary), 1814 (Primary HTS)]; format: functional
[19] = molecular target: T3, Sphingosine 1-phosphate receptor 4; assay: Late stage fluorescence dose response cell-based screening assay for antagonists of the Sphingosine 1-Phosphate Receptor 4 (S1P4). [Related pubchem assays: 1524 (Confirmation screen (S1P4 antagonists).), 1510 (Primary screen (S1P4 antagonists).), 1853 (Summary AID (S1P4 antagonists).), 1692 (Dose response screen (S1P4 antagonists).)]; format: functional
[20] = molecular target: DNA dC->dU-editing enzyme APOBEC-3G (Homo sapiens, UniProt Q9HC16); assay: Dose Response confirmation of small molecule APOBEC3G DNA Deaminase Inhibitors via a fluorescence-based single-stranded DNA deaminase assay. [Related pubchem assays (depositor defined):AID493012, AID493028]; format: functional
[21] = molecular target: DNA dC->dU-editing enzyme APOBEC-3A (Homo sapiens, UniProt P31941); assay: APOBEC3A DNA deaminase inhibitors, dose response, biochemical (AID 504722); format: functional
Hexokinase = Hexokinase (Trypanosoma brucei, UniProt Q38C41); assay: Confirmation assay for inhibitors of Trypanosoma brucei hexokinase 1-Analogue-first series. [Related pubchem assays (depositor defined):AID1430, AID1632, AID2516, AID2560, AID2579, AID2600, AID449725, AID492951]; format: functional
Chain of Hexokinase (Q38C41 whole entry): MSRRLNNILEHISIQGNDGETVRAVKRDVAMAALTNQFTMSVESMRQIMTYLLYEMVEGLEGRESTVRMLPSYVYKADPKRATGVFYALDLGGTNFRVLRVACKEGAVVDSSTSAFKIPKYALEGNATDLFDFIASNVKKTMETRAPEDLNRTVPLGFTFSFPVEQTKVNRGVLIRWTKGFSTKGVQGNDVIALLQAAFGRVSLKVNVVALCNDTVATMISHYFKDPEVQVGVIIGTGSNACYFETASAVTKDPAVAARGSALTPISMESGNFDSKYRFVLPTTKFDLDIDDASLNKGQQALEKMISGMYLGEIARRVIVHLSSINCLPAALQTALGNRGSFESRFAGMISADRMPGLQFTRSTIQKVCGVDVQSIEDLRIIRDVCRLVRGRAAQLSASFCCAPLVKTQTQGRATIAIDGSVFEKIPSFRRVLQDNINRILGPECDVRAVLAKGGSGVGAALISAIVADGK

Chain of DNA dC->dU-editing enzyme APOBEC-3G (Q9HC16 whole entry): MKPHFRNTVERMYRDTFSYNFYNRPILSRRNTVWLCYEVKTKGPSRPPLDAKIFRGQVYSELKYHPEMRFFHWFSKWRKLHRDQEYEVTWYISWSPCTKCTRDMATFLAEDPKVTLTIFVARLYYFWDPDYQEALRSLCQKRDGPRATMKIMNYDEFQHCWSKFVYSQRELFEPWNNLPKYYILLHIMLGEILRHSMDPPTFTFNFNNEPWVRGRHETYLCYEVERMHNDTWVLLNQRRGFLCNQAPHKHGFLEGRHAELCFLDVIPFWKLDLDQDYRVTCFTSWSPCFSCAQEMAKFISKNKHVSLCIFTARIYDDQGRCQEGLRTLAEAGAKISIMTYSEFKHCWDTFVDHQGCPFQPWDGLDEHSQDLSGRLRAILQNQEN
Chain of G-protein coupled receptor 55 (Q9Y2T6 whole entry): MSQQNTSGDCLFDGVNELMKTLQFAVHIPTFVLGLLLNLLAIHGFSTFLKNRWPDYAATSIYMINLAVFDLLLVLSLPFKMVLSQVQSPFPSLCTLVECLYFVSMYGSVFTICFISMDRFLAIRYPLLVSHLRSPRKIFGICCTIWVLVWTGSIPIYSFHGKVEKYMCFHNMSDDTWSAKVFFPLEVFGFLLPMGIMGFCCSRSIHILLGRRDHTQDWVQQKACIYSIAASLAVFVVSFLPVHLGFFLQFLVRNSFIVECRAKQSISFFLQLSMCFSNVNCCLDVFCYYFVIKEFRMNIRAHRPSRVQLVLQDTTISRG
Chain of DNA dC->dU-editing enzyme APOBEC-3A (P31941 whole entry): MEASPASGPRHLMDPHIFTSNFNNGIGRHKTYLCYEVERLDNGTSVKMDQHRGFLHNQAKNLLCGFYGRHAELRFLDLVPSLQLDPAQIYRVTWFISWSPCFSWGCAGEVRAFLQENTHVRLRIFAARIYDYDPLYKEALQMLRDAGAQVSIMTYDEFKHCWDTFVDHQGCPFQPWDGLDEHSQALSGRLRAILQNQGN
Chain of Alkaline phosphatase, placental type (P05187 whole entry): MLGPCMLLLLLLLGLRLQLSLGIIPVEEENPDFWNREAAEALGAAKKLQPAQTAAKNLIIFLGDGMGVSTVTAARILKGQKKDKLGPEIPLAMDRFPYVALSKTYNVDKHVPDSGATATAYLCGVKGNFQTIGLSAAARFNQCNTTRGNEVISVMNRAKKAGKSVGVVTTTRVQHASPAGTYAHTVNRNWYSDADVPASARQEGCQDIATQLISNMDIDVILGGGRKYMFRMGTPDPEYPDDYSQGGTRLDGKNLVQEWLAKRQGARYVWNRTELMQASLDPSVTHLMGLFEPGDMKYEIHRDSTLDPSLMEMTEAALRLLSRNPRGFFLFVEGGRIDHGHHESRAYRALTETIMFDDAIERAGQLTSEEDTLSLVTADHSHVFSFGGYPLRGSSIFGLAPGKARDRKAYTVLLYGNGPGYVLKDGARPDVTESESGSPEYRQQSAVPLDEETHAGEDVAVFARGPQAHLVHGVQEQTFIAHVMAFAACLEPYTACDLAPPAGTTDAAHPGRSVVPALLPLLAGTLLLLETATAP
Chain of Beta Lactamase (Q932Y6 whole entry, the tested form may be a part): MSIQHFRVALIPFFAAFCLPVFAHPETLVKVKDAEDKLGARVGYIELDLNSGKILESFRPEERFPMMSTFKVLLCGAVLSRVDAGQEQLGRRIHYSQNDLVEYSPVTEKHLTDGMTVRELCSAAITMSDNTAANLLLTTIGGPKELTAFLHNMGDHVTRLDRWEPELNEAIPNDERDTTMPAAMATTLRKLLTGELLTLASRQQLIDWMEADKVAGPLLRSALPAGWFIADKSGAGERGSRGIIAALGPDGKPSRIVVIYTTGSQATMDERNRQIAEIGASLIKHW
Chain of Sphingosine 1-phosphate receptor 1 (P21453 whole entry): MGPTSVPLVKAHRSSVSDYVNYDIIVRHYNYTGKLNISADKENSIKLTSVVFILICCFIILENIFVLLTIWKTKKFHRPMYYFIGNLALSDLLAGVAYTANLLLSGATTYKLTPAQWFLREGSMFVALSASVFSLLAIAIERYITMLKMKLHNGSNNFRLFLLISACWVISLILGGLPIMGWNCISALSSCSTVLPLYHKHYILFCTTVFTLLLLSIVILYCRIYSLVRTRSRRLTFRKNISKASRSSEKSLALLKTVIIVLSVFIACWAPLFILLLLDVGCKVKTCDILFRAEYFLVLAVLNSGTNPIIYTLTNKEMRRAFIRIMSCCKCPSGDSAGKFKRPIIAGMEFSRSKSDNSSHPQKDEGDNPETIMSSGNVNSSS
Chain of Glyceraldehyde-3-phosphate dehydrogenase (P04406 whole entry): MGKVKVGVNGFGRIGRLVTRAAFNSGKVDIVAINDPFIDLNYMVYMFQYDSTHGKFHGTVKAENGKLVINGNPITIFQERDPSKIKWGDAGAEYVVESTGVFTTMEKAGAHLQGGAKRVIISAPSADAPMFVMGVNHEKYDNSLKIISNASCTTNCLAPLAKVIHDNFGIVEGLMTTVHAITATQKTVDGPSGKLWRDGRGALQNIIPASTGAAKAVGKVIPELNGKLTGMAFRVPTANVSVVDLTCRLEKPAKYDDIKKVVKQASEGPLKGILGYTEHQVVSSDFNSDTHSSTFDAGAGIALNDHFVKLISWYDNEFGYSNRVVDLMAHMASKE
Chain of Photoreceptor-specific nuclear receptor (Q9Y5X4 whole entry, the tested form may be a part): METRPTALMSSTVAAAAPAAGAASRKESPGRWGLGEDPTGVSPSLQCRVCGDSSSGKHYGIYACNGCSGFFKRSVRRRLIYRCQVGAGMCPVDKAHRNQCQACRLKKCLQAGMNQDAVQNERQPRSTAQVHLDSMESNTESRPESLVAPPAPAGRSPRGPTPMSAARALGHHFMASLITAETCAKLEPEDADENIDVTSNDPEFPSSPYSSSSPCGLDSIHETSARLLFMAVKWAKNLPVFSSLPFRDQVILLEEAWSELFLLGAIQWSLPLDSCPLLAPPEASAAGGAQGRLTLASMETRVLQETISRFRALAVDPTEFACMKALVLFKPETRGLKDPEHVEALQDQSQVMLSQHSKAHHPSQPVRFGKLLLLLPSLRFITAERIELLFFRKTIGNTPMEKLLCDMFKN
Chain of Paired box protein Pax-8 (Q06710 whole entry): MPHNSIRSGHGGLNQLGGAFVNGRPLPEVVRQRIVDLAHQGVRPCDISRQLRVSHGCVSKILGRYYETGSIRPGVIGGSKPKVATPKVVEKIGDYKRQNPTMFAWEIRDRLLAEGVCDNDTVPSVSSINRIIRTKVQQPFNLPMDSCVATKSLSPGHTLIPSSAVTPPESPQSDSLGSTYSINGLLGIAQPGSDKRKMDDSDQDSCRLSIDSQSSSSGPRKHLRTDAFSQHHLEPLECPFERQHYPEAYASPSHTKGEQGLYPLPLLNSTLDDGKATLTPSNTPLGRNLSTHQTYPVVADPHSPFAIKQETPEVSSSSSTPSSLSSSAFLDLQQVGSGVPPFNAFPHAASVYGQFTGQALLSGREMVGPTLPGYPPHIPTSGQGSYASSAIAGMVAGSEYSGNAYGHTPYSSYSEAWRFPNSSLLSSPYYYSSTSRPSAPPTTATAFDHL

CC(C)(C)NC(=O)CN(C(=O)C1CSC(=O)C1)c1ccc2c(c1)OCCO2 (configuration not stated)
IC50 (Coagulation factor XII): > 50 µM (inactive)

COc1cccc(Cc2nc(N)nn2-c2ccccc2)c1
IC50 [1]: > 100 µM (inactive) | IC50 [2]: > 100 µM (not active) | IC50 [3]: > 100 µM (inactive)

O=C(NCc1cccnc1)/C(=C\c1ccc(-c2ccc(Cl)c(Cl)c2)o1)S(=O)(=O)c1ccccc1
IC50 [4]: 8.81 µM (active) | EC50 [5]: 2.92 µM (active) | AC50 [6]: 7.86 µM (active) | IC50 [7]: 4.34 µM (active) | AC50 [8]: 6.6 µM (active) | AC50 (INS1): 3.63 µM (active) | AC50 [9]: 8.51 µM (active) | IC50 [10]: 0.965 µM (active) | AC50 [11]: 8.45 µM (active) | AC50 [12]: 7.96 µM (active) | AC50 [13]: 3.52 µM (active) | IC50 (Beta Lactamase): 26.7 µM (inactive) | IC50 [14]: 4.08 µM (active) | AC50 (Paired box protein Pax-8): 4.66 µM (active) | EC50 [15]: 2.39 µM (active) | EC50 [16]: 1.61 µM (active) | EC50 (H4): > 120 µM (not active) | EC50 [17]: > 120 µM (not active) | EC50 [18]: > 120 µM (not active) | IC50 [19]: > 50 µM (not active)

Cn1c(S)nnc1-c1ccc(C(C)(C)C)cc1
IC50 [20]: 4.79 µM (active) | IC50 [21]: > 100 µM (inactive)

CCc1ccc(C(=O)Nc2cc(Br)ccc2C(=O)O)cc1
IC50 (Hexokinase): 5.45 µM (active)
